ChEMBL document CHEMBL5214910, “Rational Design of Dipicolylamine-Containing Carbazole Amphiphiles Combined with Zn2+ as Potent Broad-Spectrum Antibacterial Agents with a Membrane-Disruptive Mechanism” (J Med Chem, 2021)
In brackets after ≈: the same amount, converted by molar mass. Activity calls are given as the source filed them. No cut-off for these calls is given here.

What was measured:
[1] = test system: Lipopolysaccharide (LPS); assay: Displacement of BODIPY-TR-cadaverin from Pseudomonas aeruginosa Lipopolysaccharide at 2 times of MIC incubated for 30 mins in the presence of 12.5 ug/ml Zn2+ by fluorescence based microplate reader analysis relative to control
[2] = test system: Escherichia coli; assay: Antibacterial activity Escherichia coli ATCC 25922 assessed as inhibition of bacterial growth incubated for 24 hrs in the presence of […] ug/mL Zn2+ by Muller hinton broth based dilution assay; format: functional
[3] = test system: Staphylococcus aureus; assay: Antibacterial activity against Methicillin-resistant Staphylococcus aureus NCTC10442 assessed as inhibition of bacterial growth by measuring salt resistance incubated for 24 hrs in the presence of 12.5 ug/ml Zn2+ and 3220 ug/ml Na+ by Muller hinton broth based dilution assay; format: functional
[4] = test system: Lipopolysaccharide (LPS); assay: Displacement of BODIPY-TR-cadaverin from Pseudomonas aeruginosa Lipopolysaccharide at 16 times of MIC incubated for 30 mins in the presence of 12.5 ug/ml Zn2+ by fluorescence based microplate reader analysis relative to control
[5] = test system: Staphylococcus aureus; assay: Antibacterial activity against Methicillin-resistant Staphylococcus aureus N315 assessed as inhibition of bacterial growth by measuring salt resistance incubated for 24 hrs in the presence of 12.5 ug/ml Zn2+ and 24.3 ug/ml Mg2+ by Muller hinton broth based dilution assay; format: functional
[6] = test system: Cell membrane; assay: Induction of outer membrane permeabilization in Escherichia coli ATCC 25922 assessed as increase in fluorescence intensity at 2 times to 8 times MIC measured for 1 hrs in the presence of 12.5 ug/ml Zn2+ by NPN uptake assay; format: subcellular; settings: DDE = dose-dependent effect
[7] = test system: Escherichia coli; assay: Antibacterial activity Escherichia coli ATCC 25922 assessed as inhibition of bacterial growth incubated for 24 hrs by Muller hinton broth based dilution assay; format: functional
[8] = test system: Lipopolysaccharide (LPS); assay: Displacement of BODIPY-TR-cadaverin from Pseudomonas aeruginosa Lipopolysaccharide at 8 times of MIC incubated for 30 mins in the presence of 12.5 ug/ml Zn2+ by fluorescence based microplate reader analysis relative to control
[9] = test system: Cell membrane; assay: Disruption of cell membrane integrity in Escherichia coli ATCC 25922 assessed as increase in red fluorescence at 8 times of MIC measured for 2 hrs in the presence of 12.5 ug/ml Zn2+ by PI and SYTO staining based assay; format: subcellular
[10] = test system: Cell membrane; assay: Disruption of cell membrane integrity in Staphylococcus aureus ATCC 29213 assessed as increase in fluorescence intensity at 2 times to 8 times of MIC measured for 1 hrs in the presence of 12.5 ug/ml Zn2+ by SYTOX green dye based assay; format: subcellular; settings: DDE = dose-dependent effect
[11] = test system: Staphylococcus aureus; assay: Antibacterial activity against Methicillin-resistant Staphylococcus aureus NCTC10442 assessed as inhibition of bacterial growth incubated for 24 hrs in the presence of 3.125 ug/mL Zn2+ by Muller hinton broth based dilution assay; format: functional
[12] = test system: Escherichia coli; assay: Antibacterial activity against Escherichia coli ATCC 25922 assessed as inhibition of bacterial growth by measuring salt resistance incubated for 24 hrs in the presence of 12.5 ug/ml Zn2+ and 3220 ug/ml Na+ by Muller hinton broth based dilution assay; format: functional
[13] = test system: Staphylococcus aureus; assay: Antibacterial activity against Staphylococcus aureus ATCC 29213 assessed as inhibition of bacterial growth incubated for 24 hrs by Muller hinton broth based dilution assay; format: functional
[14] = test system: Staphylococcus aureus; assay: Antibacterial activity against Methicillin-resistant Staphylococcus aureus NCTC10442 assessed as inhibition of bacterial growth by measuring salt resistance incubated for 24 hrs in the presence of 12.5 ug/ml Zn2+ and 175.5 ug/ml K+ by Muller hinton broth based dilution assay; format: functional
[15] = test system: Escherichia coli; assay: Antibacterial activity against Escherichia coli ATCC 25922 assessed as log reduction in bacterial count at 8 times of MIC incubated for 30 mins in the presence of 12.5 ug/ml Zn2+ by Muller hinton agar based time kill assay; format: functional; settings: 0.5 h
[16] = test system: Staphylococcus aureus; assay: Antibacterial activity against Staphylococcus aureus ATCC 29213 assessed as inhibition of bacterial growth by measuring salt resistance incubated for 24 hrs in the presence of 12.5 ug/ml Zn2+ and 100 ug/ml Ca2+ by Muller hinton broth based dilution assay; format: functional
[17] = test system: Staphylococcus aureus; assay: Antibacterial activity against Staphylococcus aureus ATCC 29213 assessed as inhibition of bacterial growth incubated for 24 hrs in the presence of 6.25 ug/mL Zn2+ by Muller hinton broth based dilution assay; format: functional
[18] = test system: Pseudomonas aeruginosa; assay: Antibacterial activity Pseudomonas aeruginosa ATCC 9027 assessed as inhibition of bacterial growth incubated for 24 hrs in the presence of 25 ug/mL Zn2+ by Muller hinton broth based dilution assay; format: functional
[19] = test system: Cell membrane; assay: Induction of cell membrane […] in Escherichia coli ATCC 25922 assessed as increase in fluorescence intensity at 2 times to 8 times of MIC measured for 1 hrs in the presence of 12.5 ug/ml Zn2+ by […] dye based assay; format: subcellular
[20] = test system: Cell membrane; assay: Disruption of cell membrane integrity in Escherichia coli ATCC 25922 assessed as increase in fluorescence intensity at 2 times to 8 times of MIC measured for 1 hrs in the presence of 12.5 ug/ml Zn2+ by SYTOX green dye based assay; format: subcellular; settings: DDE = dose-dependent effect
[21] = test system: Staphylococcus aureus; assay: Antibacterial activity against Staphylococcus aureus ATCC 29213 assessed as inhibition of bacterial growth incubated for 24 hrs in the presence of […] ug/mL Zn2+ by Muller hinton broth based dilution assay; format: functional
[22] = test system: Staphylococcus aureus; assay: Antibacterial activity against Staphylococcus aureus ATCC 29213 assessed as inhibition of bacterial growth incubated for 24 hrs in the presence of 25 ug/mL Zn2+ by Muller hinton broth based dilution assay; format: functional
[23] = test system: Acinetobacter baumannii; assay: Antibacterial activity against Acinetobacter baumannii ATCC 17978 assessed as inhibition of bacterial growth by measuring salt resistance incubated for 24 hrs in the presence of 12.5 ug/ml Zn2+ and 175.5 ug/ml K+ by Muller hinton broth based dilution assay; format: functional
[24] = test system: Acinetobacter baumannii; assay: Antibacterial activity against Acinetobacter baumannii ATCC 17978 assessed as inhibition of bacterial growth by measuring salt resistance incubated for 24 hrs in the presence of 12.5 ug/ml Zn2+ and 100 ug/ml […] by Muller hinton broth based dilution assay; format: functional
[25] = test system: Staphylococcus aureus; assay: Antibacterial activity against Staphylococcus aureus ATCC 29213 assessed as inhibition of bacterial growth incubated for 24 hrs in the presence of 12.5 ug/mL Zn2+ by Muller hinton broth based dilution assay; format: functional
[26] = test system: Cell membrane; assay: Disruption of cell membrane integrity in Staphylococcus aureus ATCC 29213 assessed as increase in red fluorescence at 8 times of MIC measured for 2 hrs in the presence of 12.5 ug/ml Zn2+ by PI and SYTO staining based assay
[27] = test system: Pseudomonas aeruginosa; assay: Antibacterial activity against Pseudomonas aeruginosa ATCC 9027 in C57BL/6 mouse model of bacterial keratitis assessed as log reduction in viable bacterial count in infected cornea at 0.5 % pre-infected with bacteria for 24 hrs followed by topical administration of compound four times a day for 3 days in the presence of 12.5 ug/ml of Zn2+; format: functional; settings: route top, time 3 day
[28] = test system: Pseudomonas aeruginosa; assay: Antibacterial activity Pseudomonas aeruginosa ATCC 9027 assessed as inhibition of bacterial growth incubated for 24 hrs in the presence of 50 ug/mL Zn2+ by Muller hinton broth based dilution assay; format: functional

## CC(C)=CCn1c2ccccc2c2c(OCC(O)CN(Cc3ccccn3)Cc3ccccn3)cccc21 (stereo not drawn)
[1]
  Activity: 39.1%
[2]
  MIC: 6.25 µg/mL
[3]
  MIC: 1.56 µg/mL
[4]
  Activity: 91%
[5]
  MIC: 1.56 µg/mL
[6]
  Activity: Dde
[7]
  MIC: 6.25 µg/mL (≈ 12.3 µM)
[8]
  Activity: 83.4%
[9]
  Activity: Active
[10]
  Activity: Dde
[11]
  MIC: 1.56 µg/mL
[12]
  MIC: 3.12 µg/mL
[13]
  MIC: 3.12 µg/mL (≈ 6.17 µM)
[14]
  MIC: 1.56 µg/mL
[15]
  log(activity): 3.59
[16]
  MIC: 3.12 µg/mL
[17]
  MIC: 1.56 µg/mL
[18]
  MIC: 3.12 µg/mL
[19]
  Activity: Active
[20]
  Activity: Dde
[21]
  MIC: 3.12 µg/mL
[22]
  MIC: 1.56 µg/mL
[23]
  MIC: 0.78 µg/mL
[24]
  MIC: 3.12 µg/mL
[25]
  MIC: 1.56 µg/mL
[26]
  Activity: Active
[27]
  log(activity): 4.46
[28]
  MIC: 3.12 µg/mL
